{"source": "PubChem BioAssay (NCI)", "assay_in_all_cases": "NCI anticancer screen, dose series, 48 h", "key": {"[1]": {"tested_on": "MOLT-4 leukemia"}, "[2]": {"tested_on": "RXF 393 renal"}, "[3]": {"tested_on": "SF-539 CNS"}, "[4]": {"tested_on": "SF-268 CNS"}, "[5]": {"tested_on": "HCT-15 colon"}, "[6]": {"tested_on": "OVCAR-8 ovarian"}, "[7]": {"tested_on": "NCI-H23 lung"}, "[8]": {"tested_on": "KM20L2 colon"}, "[9]": {"tested_on": "A549 NSCLC"}, "[10]": {"tested_on": "KM12 colon"}, "[11]": {"tested_on": "TK-10 renal"}, "[12]": {"tested_on": "M14 melanoma"}, "[13]": {"tested_on": "SK-MEL-2 melanoma"}, "[14]": {"tested_on": "DLD-1 colon"}, "[15]": {"tested_on": "EKVX NSCLC"}, "[16]": {"tested_on": "CCRF-CEM leukemia"}, "[17]": {"tested_on": "XF 498 CNS"}, "[18]": {"tested_on": "SW-620 colon"}, "[19]": {"tested_on": "DMS 273 small cell lung"}, "[20]": {"tested_on": "OVCAR-5 ovarian"}}, "note": "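Following 48 hours of exposure in 96-well plates, responses at five concentrations were used to interpolate endpoints linearly. TGI: concentration producing complete growth inhibition.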", "data": [{"compound": "COc1c2c(c3ccccc3c1O)C1C=CC2C1", "note": "(stereo not given)", "values": [{"measurement": "TGI", "setting": "[1]", "result": 47.2, "unit": "µM"}, {"measurement": "TGI", "setting": "[2]", "result": 28.9, "unit": "µM"}, {"measurement": "TGI", "setting": "[3]", "result": 29, "unit": "µM"}, {"measurement": "TGI", "setting": "[4]", "result": 33.7, "unit": "µM"}, {"measurement": "TGI", "setting": "[5]", "result": 22, "unit": "µM"}, {"measurement": "TGI", "setting": "[6]", "result": 28.7, "unit": "µM"}, {"measurement": "TGI", "setting": "[7]", "result": 28.9, "unit": "µM"}, {"measurement": "TGI", "setting": "[8]", "result": 45.7, "unit": "µM"}, {"measurement": "TGI", "setting": "[9]", "result": 36.6, "unit": "µM"}, {"measurement": "TGI", "setting": "[10]", "result": 31.4, "unit": "µM"}, {"measurement": "TGI", "setting": "[11]", "result": 36.8, "unit": "µM"}, {"measurement": "TGI", "setting": "[12]", "result": 27.9, "unit": "µM"}, {"measurement": "TGI", "setting": "[13]", "result": 31.5, "unit": "µM"}, {"measurement": "TGI", "setting": "[14]", "result": 31.6, "unit": "µM"}, {"measurement": "TGI", "setting": "[15]", "result": 33, "unit": "µM"}, {"measurement": "TGI", "setting": "[16]", "result": 97.6, "unit": "µM"}, {"measurement": "TGI", "setting": "[17]", "result": 27.9, "unit": "µM"}, {"measurement": "TGI", "setting": "[18]", "result": 34.3, "unit": "µM"}, {"measurement": "TGI", "setting": "[19]", "result": 30.3, "unit": "µM"}, {"measurement": "TGI", "setting": "[20]", "result": 33.9, "unit": "µM"}]}]}
